The values that follow are results of earlier work, collected in publication PMC12472947 (Pharmaceuticals, 2025).

The subject of this data set is SH-SY5Y neuroblastoma cells. To be noted: 50 μM, ref [28],[29]; cited from earlier work.

One may read the cell viability as the share of living cells, or the viability signal relative to a control. Take `Nc1c2c(nc3ccccc13)CCCC2` [tacrine]: the cell viability is given as 97%.
